# Measurements reported in paper PMC9873307, “Methylone, a rapid acting entactogen with robust anxiolytic and antidepressant-like activity” (Frontiers in Psychiatry, 2023).
# Where two headings read alike, the source gives them in different places.
# Assays:
# [1] = cited from earlier work; for reduced immobility in the FST: FST literature
# [2] = set-up: method as in PMID 10080230; settings: cited from earlier work
# male Sprague Dawley rats [3] = experiment: Forced swim test (FST); assay type: in vivo, rat; settings: for swimming vs vehicle: Figure 3G
# Method: (§1) Male Sprague Dawley rats (Charles River Laboratories) weighing 180–200 g on arrival, were used for all behavioral studies, which took place at Melior Discovery (Exton, PA, USA). Rats acclimated to their home cages for at least 1 week before testing, were maintained in a controlled environment on a 12 h light/dark cycle, with no more than 2 rats per cage. Animals received ad libitum access to standard rodent chow and water and were assigned randomly to treatment groups. All animal use and procedures were in accordance with established protocols approved by the Melior IACUC committee, Melior Standard Operation Procedures (SOP), and Transcend Therapeutics. Distinct cohorts of animals were used for each experiment/Figure presented in this manuscript.
# (§2) Methylone HCl (0.5–30 mg/kg; Cayman Chemical) or Fluoxetine HCl (10 mg/kg; Sigma-Aldrich) were formulated in sterile 0.9% saline vehicle before IP administration. Control animals received saline vehicle. Methylone or saline was administered 30 min prior to FST or OFT testing sessions. Fluoxetine or saline were administered 23.5, 5, and 1 h prior to testing, consistent with previous studies ([19]).
# All studies were performed and scored by an experimenter blind to treatment group according to standard protocols at Melior Discovery (Exton, PA, USA) and based on published “modified FST” procedures ([20]). Briefly, rats were placed in a circular plexiglass container (29.2 cm diameter, 49.5 cm height) filled with water to a depth of 30 cm so rats could not support themselves by touching the bottom of the tank. Water was maintained at 22–25°C and was changed for every animal. Day 1 (Training) consisted of a 15 min acclimation trial, and Day 2 (Testing, 24 h later) consisted of the 5 min test. A time sampling procedure was employed where animals were observed every 5 s for the duration of the test session (60 counts or 5 min) and scored for immobility (defined as the failure to struggle), swimming (defined as a circular movement around the tank), or climbing (defined as an upward escape behavior). Data are expressed as the percent time spent immobile, swimming, or climbing for the 5-min testing session (e.g., the number of immobility counts divided by 60). Therefore, to extrapolate these values to time spent immobile in minutes, one can multiply the percent time immobile by 5 min.
# male Sprague Dawley rats [4] = experiment: Open field test (OFT): locomotor activity and time in center; assay type: in vivo, rat
# Method: as §1, §2
# All studies were performed by an experimenter blind to treatment group and according to standard protocols at Melior Discovery (Exton, PA, USA). The OFT was used to assess both locomotor activity and anxiety-like behavior. The OFT was run in a standard rat OFA chamber (17 ^^′′ × 17 ^^′′ × 12 ^^′′ , Med Associates). After habituation to the testing room and drug injection, rats were assessed for 30 min in the OFT using an automated activity monitoring system (MedAssociates). Locomotor activity was measured by recording the total ambulatory distance traveled (cm), reported in 5-min bins for the duration of the 30 min testing period. The center of the open field was defined as a 12 ^^′′ square, a predefined center setting on the MedAssociates analysis software. Time spent in the center of the open field, an anxiolytic measure, was also recorded for the 30 min testing period.
structure (smiles),measurement,setting,value
"CNC(C)Cc1ccc2c(c1)OCO2 (stereo not shown) [MDMA, 3,4-methylenedioxymethamphetamine]",reduced immobility in the FST,[1],47–78%
same,reduction of immobility compared to vehicle controls,[1]; FST,47–78%
same,effect on anxiety,[2]; clinically relevant doses,no effect
same,effect on anxiety,[2]; higher doses,anxiogenic
CN(C)CCc1c[nH]c2cccc(OP(=O)(O)O)c12 [psilocybin],reduced immobility in the FST,[1],67%
CNCCCN1c2ccccc2CCc2ccccc21 [desipramine],reduced immobility in the FST,[1],55–75%
Fc1ccc([C@@H]2CCNC[C@H]2COc2ccc3c(c2)OCO3)cc1 [paroxetine],reduced immobility in the FST,[1],40%
"CNCCC(Oc1ccc(C(F)(F)F)cc1)c1ccccc1 (stereo not shown) [fluoxetine, reference compound]",reduced immobility in the FST,[1],56%
same,climbing behavior vs controls,"male Sprague Dawley rats [3]; fluoxetine 10 mg/kg IP x3, Figure 1E",unaffected
same,swimming behavior vs controls,"male Sprague Dawley rats [3]; fluoxetine 10 mg/kg IP x3, Figure 1G",significantly increased
same,climbing vs vehicle on retest,"male Sprague Dawley rats [3]; fluoxetine 10 mg/kg IP x3, 1 h, 24, 72 h, Figure 3E",no effect on climbing
same,swimming vs vehicle,"male Sprague Dawley rats [3]; fluoxetine 10 mg/kg IP x3, 1 h post-dose",significantly increased swimming
same,swimming vs vehicle,"male Sprague Dawley rats [3]; fluoxetine 10 mg/kg IP x3, 24 h post-dose",small but significant increase in swimming
same,immobility vs vehicle on retest,"male Sprague Dawley rats [3]; fluoxetine 10 mg/kg IP x3, tested 1 h, retested 24 and 72 h later, Figure 3C",only showed a significant effect on immobility 1 h post-dose
same,reduction/change in immobility vs vehicle control,"male Sprague Dawley rats [3]; fluoxetine 10 mg/kg IP, three doses 23.5, 5, 1 h before testing",50%
same,swimming compared to vehicle,"male Sprague Dawley rats [3]; fluoxetine 10 mg/kg x3 alone or with methylone 5 mg/kg, Figure 6D",significantly increased swimming
same,duration of reduction in immobility,"male Sprague Dawley rats [3]; fluoxetine 10 mg/kg, three doses within 24 h before testing",less than 24 h
same,"distance traveled, first 5 min","male Sprague Dawley rats [4]; fluoxetine 10 mg/kg IP x3, 1 h post-dose, Figure 4B",reduced distance traveled
same,"distance traveled over 30-min session, 5-min bins","male Sprague Dawley rats [4]; fluoxetine 10 mg/kg IP x3, Figure 4E",reduced distance traveled in the OFT for the first 15 min
same,time spent in the center,"male Sprague Dawley rats [4]; fluoxetine 10 mg/kg IP x3, Figure 5B",significantly reduced time spent in the center
CN[C@H]1CC[C@@H](c2ccc(Cl)c(Cl)c2)c2ccccc21 [sertraline],reduced immobility in the FST,[1],50–68%
CNC1(c2ccccc2Cl)CCCCC1=O (stereo not shown) [ketamine],reduced immobility in the FST,[1],25–62%
